Measurements: article PMC10876669, “Substrate promiscuity of inositol 1,4,5-trisphosphate kinase driven by structurally-modified ligands and active site plasticity” (Nature Communications, 2024)
“And” between values parts separate entries of the source, which are not always exact repeats. Equal entries are not always repeated.

Assays:
[1] = biological target: T1, IP3K-KD (human IP3K-KD A isoform, residues 187–461) (Homo sapiens, UniProt P23677); assay: Fluorescence thermal shift analysis (Tycho NT.6, inflection temperature Ti); format: binding; conditions: for Ti, transition 1 (mean inflection temperature) / Ti, transition 2 (mean inflection temperature): 10 μM IP3K-KD, 100 μM chiral or 200 μM racemic ligand, AMP-PNP or ADP, 100 μM MgCl2; for Ti, transition 1 (mean inflection temperature) / Ti, transition 2 (mean inflection temperature) / ΔTi, transition 1 / ΔTi, transition 2: mean ± SD, n=3; for ΔTi, transition 1: Ti minus Ti of apo IP3K-KD (44.4); for ΔTi, transition 2: Ti minus Ti of apo IP3K-KD (53.8); for Transition 1 Ti, individual measurement / Transition 2 Ti, individual measurement: source data of Fig. 6b/6c, single replicates; for Transition 1 Dti (Ti-Ti Apo) / Transition 1 Ti Mean / Transition 2 DTi (Ti-Ti Apo) / Transition 2 Ti Mean: source data of Fig. 6c, N 3
T1 construct: human IP3K-KD A isoform (residues 187–461); GST (cleaved yes); made in house; host or cells: Escherichia coli BL21 star (DE3)
T1 sequence (P23677 187-461): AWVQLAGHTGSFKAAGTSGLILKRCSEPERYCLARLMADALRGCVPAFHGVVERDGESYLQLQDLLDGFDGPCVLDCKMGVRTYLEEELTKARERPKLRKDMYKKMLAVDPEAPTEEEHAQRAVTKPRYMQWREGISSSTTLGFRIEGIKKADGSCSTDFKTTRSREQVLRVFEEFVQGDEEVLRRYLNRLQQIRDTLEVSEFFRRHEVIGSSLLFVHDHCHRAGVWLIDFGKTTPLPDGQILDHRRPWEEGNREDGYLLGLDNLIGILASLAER
Method: (§1) A construct encoding human IP3K-KD A isoform (residues 187–461) into pOPTG vector was used[16]. The protein was expressed in Escherichia coli BL21 star (DE3) strain. Cells were grown at 37 °C to OD600 = 1.0 then induced with 0.4 mM IPTG for 18 h at 16 °C. Protein purification was performed by adapting the reported protocol. Cells were resuspended in buffer A (10 mM Tris pH 7.5 [4 °C], 200 mM NaCl and 2 mM DTT) and disrupted by sonication. Clarified cell lysate was diluted 1/4 in buffer B (10 mM Tris pH 7.5 [4 °C] and 2 mM DTT) and loaded into a 5 mL HiTrap heparin column (GE Healthcare) washed by buffer C (20 mM Tris pH 7.5, 50 mM NaCl and 2 mM DTT), and eluted with a 0.05 M–1 M salt gradient. The eluted sample was subsequently loaded on to a 5 mL glutathione–Sepharose HP column (GE Healthcare), washed with buffer A and eluted with reduced glutathione 10 mM (Sigma-Aldrich) in buffer A. The GST tag was cleaved with home-made TEV (tobacco etch virus) protease overnight at 4 °C, (1:40 TEV/protein mass ratio). After glutathione removal with a PD10 column, the cleaved protein was further purified using a 5 mL glutathione–Sepharose HP column (GE Healthcare) followed by gel filtration on a 16/600 Superdex200 (GE Healthcare) column equilibrated in buffer D (20 mM Tris pH 7.5 [4 °C], 0.05 M (NH4)2SO4 and 2 mM DTT). Protein samples were analyzed by SDS/PAGE, concentrated around 18 mg/mL and stored at −80 °C until use.
Thermal protein denaturation was documented by recording intrinsic protein fluorescence at 330 and 350 nm wavelengths. The fluorescence recorded in each thermal run is plotted as 350/330 nm ratio and used to calculate the Inflection Temperature (Ti). Ti is the temperature at which a protein undergoes a transition in its folding state. This calculation is performed automatically by the Tycho NT.6 software. The protocol optimized for this procedure, involves a heating time of 2 min, a sample volume of 10 μl placed in a very thin capillary, and a temperature ramp from 35 °C (308 K) to 95 °C (368 K). For the experiment, IP3K-KD was diluted with buffer D to achieve a concentration of 0.31 mg/mL (10 μM). It was then mixed with 100 μM of chiral ligands or 200 μM of racemic ligands (all synthesized as stated in this work except InsP3 and InsP4 that were commercial from Avanti Polar Lipids), AMP-PNP (substrate analogues) or ADP (product-like ligands) and 100 μM MgCl2. Microsoft Excel was used to calculate and plot ΔTi values and standard deviations.

[2] = biological target: T1, IP3K-KD (human IP3K-KD A isoform, residues 187–461); assay: Ligand displacement assay: fluorescence polarization (anisotropy) of 2-FITC-InsP3/IP3K-KD complex; format: binding; conditions: for IC50: 100 nM IP3K-KD, 2 nM 2-FITC-InsP3, 20 mM HEPES pH 7.5, 1 mM EDTA, 50 mM KCl, n=4 replicates, 5-s and 5-p racemic, read-out: IC50, displacement of 2-FITC-InsP3 from IP3K-KD; for Quality as IP3K ligand (in words): Fig. 6; for Kd: estimated Ki (Kd) from IC50 with [2-FITC-InsP3] 2 nM and its Kd 68 nM, read-out: Kd inferred from IC50 (Cheng and Prusoff)
Method: as §1
Binding of a competing/displacing ligand to protein is observed as a decrease in the polarization (anisotropy) of 2-FITC-InsP3. A comparison of the strength of binding of enzyme substrates, analogues and products to IP3K-KD was obtained by measurement of fluorescence polarization (here anisotropy) of 2-FITC-InsP3/IP3K-KD complex. Experimentally, 100 nM IP3K-KD was mixed with 2 nM 2-FITC-InsP3[37] in 20 mM HEPES pH 7.5, 1 mM EDTA and 50 mM KCl with the addition of displacing compounds over a range of 1 nM–50 μM. Assays were analyzed using a ClarioSTAR plate reader and IC50 values determined from fit of the data to a 4-parameter logistic as described. From IC50 values, we have estimated the Ki (Kd) values for the displacing ligands using the equation of Cheng and Prusoff:[69]1 Ki=IC50/1+L/Kd where [L] is the ligand (2-FITC-InsP3) concentration and Kd the dissociation constant for its interaction with IP3K-KD. […] Consequently, the Ki values for the displacing ligands differ trivially from their IC50 values.

[3] = system: permeabilized rabbit platelets; parameters: method as in doi:10.1016/0960-894X(96)00399-X; conditions: cited from earlier work
IP3K-KD [4] = biological target: T2, IP3K-KD (Homo sapiens, UniProt P23677); assay: HPLC analysis of IP3K-KD reaction mixtures (substrate test); format: biochemical; conditions: 150 nM IP3K-KD, 500 μM analogue, 1 mM ATP, 2 h at 30 °C, Fig. 7a
T2 construct: human IP3K-KD A isoform (residues 187–461); GST (cleaved yes); made in house; host or cells: Escherichia coli BL21 star (DE3)
T2 sequence (P23677 187-461): as above
Method: as §1

IP3K-KD [5] = biological target: T2, IP3K-KD; assay: Direct binding of 2-FITC-InsP3 to IP3K-KD, one-site binding model; conditions: GraphPad Prism
[6] = system: permeabilized rat hepatocytes; parameters: method as in PMID 11405648; conditions: cited from earlier work

Row | SMILES | Ti, transition 1 (mean inflection temperature) [1] | Ti, transition 2 (mean inflection temperature) [1] | ΔTi, transition 1 [1] | ΔTi, transition 2 [1] | Transition 1 Ti, individual measurement [1] | Transition 2 Ti, individual measurement [1] | Transition 1 Dti (Ti-Ti Apo) [1] | Transition 1 Ti Mean [1] | Transition 2 DTi (Ti-Ti Apo) [1] | Transition 2 Ti Mean [1] | IC50 [2] [nM] | Quality as IP3K ligand (in words) [2] | Kd [2] [nM] | 45Ca2+ release relative to InsP3 [3] | Ability to act as IP3K substrate (in words) (IP3K-KD [4]) | Stabilization of IP3K-KD by ligand (in words) ([1]; thermal shift, Fig. 6c) | Kd (IP3K-KD [5]) [nM] | Ability to stimulate cellular Ca2+ release [6]
1 | O=P(O)(O)O[C@@H]1[C@@H](O)[C@H](CO)[C@@H](OP(=O)(O)O)[C@H](OP(=O)(O)O)[C@H]1O (racemic) [5-s, DL−6-deoxy-6-hydroxymethyl-scyllo-inositol 1,2,4-trisphosphate] | 51.3 ± 0.2 ºC | 57.0 ± 0.1 ºC | 6.9 ± 0.4 ºC | 3.2 ± 0.2 ºC | 51.5 and 51.1 and 51.3 | 56.9 (2×) and 57.1 | 6.9 | 51.3 | 3.2 | 57.0 | 972 | good IP3K ligand | 944 | equipotent with InsP3 itself | are also substrates |  |  | 
2 | O=P(O)(O)O[C@@H]1O[C@H](CO)[C@@H](OP(=O)(O)O)[C@H](OP(=O)(O)O)[C@H]1O [6a–s, β-D-glucopyranosyl 1,3,4-trisphosphate] | 51.5 ± 0.2 ºC | 57.3 ± 0.1 ºC | 7.1 ± 0.3 ºC | 3.5 ± 0.2 ºC | 51.4 and 51.5 and 51.7 | 57.4 (2×) and 57.2 | 7.1 | 51.5 | 3.5 | 57.3 | 205 |  | 199 |  | are also substrates |  |  | 
3 | O=P(O)(O)O[C@H]1O[C@H](CO)[C@@H](OP(=O)(O)O)[C@H](OP(=O)(O)O)[C@H]1O [6b–s, α-D-glucopyranosyl 1,3,4-trisphosphate] | 45.7 ± 0.5 ºC | 54.6 ± 0.0 ºC | 1.3 ± 0.6 ºC | 0.8 ± 0.2 ºC | 45.5 and 46.3 and 45.3 | 54.6 | 1.3 | 45.7 | 0.8 | 54.6 | 8980 |  | 8720 |  | weaker substrates | stabilize IP3K-KD much less than InsP3 |  | 
4 | O=C(O)c1cc(NC(=S)NCCO[C@@H]2[C@H](O)[C@@H](OP(=O)(O)O)[C@H](OP(=O)(O)O)[C@@H](O)[C@@H]2OP(=O)(O)O)ccc1-c1c2ccc(=O)cc-2oc2cc(O)ccc12 [2-FITC-InsP3] |  |  |  |  |  |  |  |  |  |  |  |  |  |  |  |  | 68 | 
5 | O=P(O)(O)OCC1C(O)C(OP(=O)(O)O)C(O)C(OP(=O)(O)O)C1OP(=O)(O)O (racemic) [5-p, DL-6-deoxy-6-phosphoryloxymethyl-scyllo-inositol 1,2,4-trisphosphate] | 52.1 ± 0.1 ºC | 57.6 ± 0.1 ºC | 7.7 ± 0.3 ºC | 3.8 ± 0.2 ºC | 52.2 and 52.1 and 52.0 | 57.6 (2×) and 57.7 | 7.7 | 52.1 | 3.8 | 57.6 | 875 | maintains quite good binding to IP3K | 850 |  |  |  |  | abolishes the ability to stimulate cellular Ca^2+ release
